Usually Ki stands for the equilibrium dissociation constant of an inhibitor or competing ligand from its target. A high value points to lower affinity. As a reminder, the EC50 is the concentration giving half of the maximal effect.

From PubChem BioAssay AID1869 (NMMLSC, 2009) come the findings set out here.

The target of this test is Regulator of G-protein signaling 8 (Homo sapiens) (UniProt P57771). Briefly: RGS8-Galphao interaction modulators, dose response, biochemical, multiplex bead flow cytometry (AID 1869). Particulars: bead-based flow cytometry RGS8-Galphao binding; for Ki: measured here: Ki for RGS8-Galphao binding. In general terms: A flow cytometer gives signals particle by particle.

Active and inactive are the calls of the source. No rule for the calls is given here.

Regulator of G-protein signaling 8 (Homo sapiens), sequence (P57771 whole entry, looked up): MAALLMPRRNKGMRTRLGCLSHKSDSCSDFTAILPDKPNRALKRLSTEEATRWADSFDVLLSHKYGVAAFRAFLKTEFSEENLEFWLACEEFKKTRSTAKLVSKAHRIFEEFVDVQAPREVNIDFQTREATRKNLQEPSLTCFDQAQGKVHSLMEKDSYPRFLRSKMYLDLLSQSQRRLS

Molecule `COC(=O)CCC(=O)Nc1sc(C)c(C)c1C(N)=O` showed a Ki of 4.93 µM. Still for that read-out and setting: for `Cc1ccc(-n2sc3ccccc3c2=O)cc1S(=O)(=O)N1CCCCC1` the value was 9.95 µM; for `CCC(=O)NC(c1ccc(C)cc1)c1cc([N+](=O)[O-])c2cccnc2c1O` (stereo not drawn), 13.7 µM. As to `CCN1/C(=C/C=C/C=C/c2sc3ccccc3[n+]2CC)Sc2ccccc21`, the inhibition constant Ki was 4.71 µM.

For the molecule `CN(C)S(=O)(=O)c1cccc(-n2sc3ccccc3c2=O)c1`, the Ki is 3.31 µM. The same measure, in the same setting: as for `Cc1cc(C)c2c(=O)n(CC(=O)Nc3ccc(Cl)cc3)sc2n1`, the figure is 5.27 µM; as for `CN=c1scc(C)n1/N=C/c1ccc(O)c(O)c1O`, 7.21 µM; as for `Nc1cccnc1Sc1ccc([N+](=O)[O-])cn1`, 13.7 µM. In turn, `O=C(COc1ccccc1C(=O)N/N=C\c1ccc(O)c(O)c1)N/N=C/c1ccc(O)c(O)c1` came in with a Ki of 2.49 µM. As for `CC(C)Sc1nc2ccc(N3C(=O)C4CCCCC4C3=O)cc2s1` (stereo not drawn), the EC50 is > 30 µM (inactive). Still for that read-out and setting: for `CCOC(=O)/C(C(=O)Nc1ccccc1Cl)=C1/NC(C)(C)Cc2ccccc21` the value was > 30 µM (inactive).

On to `CCC(=O)NC1=C(Cl)C(=O)C(NC(=O)CC)=C(Cl)C1=O`, for which the inhibitory constant (Ki) turned out to be 2.83 µM.

Take `CN(C)[C@@H]1C(=O)C(C(=O)NCN2CCCC2)=C(O)[C@@]2(O)C(=O)C3=C(O)c4c(O)cccc4[C@@](C)(O)C3CC12` (stereo partly drawn): the EC50 was 7.06 µM and the Ki was 5.85 µM. The molecule `Nc1c(C(=O)NCC2CCCO2)sc2nc3c(c(-c4ccco4)c12)CC/C3=C\c1ccco1` (stereo not drawn) gave a Ki of 6.07 µM. This lies in the single-digit micromolar range. On the same count and under the same terms, for `Cc1cc(Cl)ccc1N=c1ssnc1Cl` the value was 11.9 µM. The same measure, in the same setting: for `COc1ccc(C2=CC(=O)C=CC2=O)cc1` the value was 6.01 µM. `O=C1CCCC2=C1C(c1cccs1)n1ncnc1N2` (stereo not drawn): the EC50 was > 30 µM (inactive). The molecule `Cc1cccc(N2CCN(C(=O)Cn3sc4nc(C)cc(C)c4c3=O)CC2C)c1` (stereo not drawn) yielded a Ki of 12.8 µM. The same measure, in the same setting: as for `CCN=c1scc(C)n1/N=C/c1ccc(O)c(O)c1O`, the figure is 19.6 µM; as for `CN(C)c1ncc(C2=C(Cl)C(=O)C(N3CCCC3)=C(Cl)C2=O)s1`, 1.11 µM. Same read-out and setting: as for `O=c1c2ccccc2sn1-c1ccccc1`, the figure is 5.06 µM; as for `O=C(NCCCN1CCOCC1)c1sc2cc([N+](=O)[O-])ccc2c1Cl`, 2.16 µM. Molecule `CCOC(=O)C1CCCN(C(=O)Cn2sc3nc(C)cc(C)c3c2=O)C1` (stereo not drawn) had an inhibition constant Ki of 4.49 µM. Against the preceding molecule, the Ki is about 2.1-fold higher. On the same count and under the same terms, for `Cc1[nH]n(-c2ccccc2)c(=S)c1C=NCCCN=Cc1c(C)[nH]n(-c2ccccc2)c1=S` the value was 4.25 µM; for `CC1(C)OC(=O)C(=Cc2ccc(-c3ccc(S(N)(=O)=O)cc3)o2)C(=O)O1`, 3.98 µM. The same measure, in the same setting: for `Cc1ccc(NC(=O)Cn2sc3nc(C)cc(C)c3c2=O)c(Cl)c1` the value was 11.7 µM; for `CN1CCN(C2=C(Cl)C(=O)C(c3cnc(N4CCCCC4)s3)=C(Cl)C2=O)CC1`, 0.11 µM.

As for `CCOC(=O)C1=C(C)NC(C)=C(C(=O)OCCNC(=O)c2cccnc2)C1c1cccc([N+](=O)[O-])c1` (stereo not drawn), the EC50 is > 30 µM (inactive). As for `COc1ccc(OC)c(CCNC(=O)Cn2sc3nc(C)cc(C)c3c2=O)c1`, the inhibitory constant (Ki) was found to be 3.85 µM.

With `COc1ccc(Br)cc1/C=N/Nc1cccc(C(=O)O)c1`, the EC50 was > 30 µM (inactive). On to `CCOC(=O)c1sc(NC(=O)CSc2nnc(Cc3ccccc3)o2)c(C#N)c1C`, for which the Ki stood at 5.55 µM. Still for that read-out and setting: for `Cc1[nH]n(-c2ccccc2)c(=S)c1C=Nc1cccc([N+](=O)[O-])c1` the value was 1.65 µM.

`O=c1c2ccccc2sn1-c1cc(S(=O)(=O)N2CCOCC2)ccc1N1CCCC1` displayed an inhibition constant Ki of 3.05 µM. This Ki is about 1.8-fold higher than that of the molecule before.

`O=C(O)C[C@@H]1C(=O)O[C@@H]2C(COC(=O)c3cc(O)c(O)c(O)c3)O[C@@H](OC(=O)c3cc(O)c(O)c(O)c3)[C@@H](OC(=O)c3cc(O)c(O)c4c3[C@H]1[C@H](O)C(=O)O4)[C@H]2OC(=O)c1cc(O)c(O)c(O)c1` (stereo partly drawn) displayed a Ki of 0.68 µM. Same read-out and setting: as for `O=C1CCC(=O)N(O)CCCCCNC(=O)CCC(=O)N(O)CCCCCNC(=O)CCC(=O)N(O)CCCCCN1`, the figure is 1.7 µM; as for `Cc1cc(C)c2c(=O)n(CC(=O)Nc3cccc(F)c3)sc2n1`, 6.53 µM; as for `O=[N+]([O-])c1ccc(Sc2cccc[n+]2[O-])c2nonc12`, 2.54 µM.

Regarding `O=C(Cc1csc(N2CCOCC2)n1)N/N=C/c1ccc(O)c(O)c1O`, the Ki turned out to be 13.8 µM. This Ki is about 5.4-fold higher than that of the molecule before. Same read-out and setting: for `CC(NC(=O)c1sc2cc([N+](=O)[O-])ccc2c1Cl)C(C)(C)C` (stereo not drawn) the value was 1.63 µM; for `COCCCNC(=O)c1ccc2c3c(onc13)-c1ccccc1C2=O`, 3.52 µM; for `O=c1c2ccccc2sn1-c1ccc(S(=O)(=O)N2CCCC2)cc1`, 8.61 µM. With `O=c1[nH]c(=S)n(Cc2ccco2)c(O)c1C=NCc1cccs1`, the EC50 was > 30 µM (inactive). With `O=c1c2ccccc2sn1-c1cc(S(=O)(=O)N2CCOCC2)ccc1N1CCOCC1`, the Ki stood at 4.21 µM.

Consider `CCN1/C(=C/C(C)=C/c2sc3ccccc3[n+]2CC)Sc2ccccc21`, for which the inhibitory constant (Ki) stood at 7.38 µM. Compared with the last molecule, the Ki is about 1.8-fold higher.

In turn, `CC(=O)N(O)CCCCCNC(=O)CCC(=O)N(O)CCCCCNC(=O)CCC(=O)N(O)CCCCCN` displayed a Ki of 1.89 µM. As to `CCN(CC)S(=O)(=O)c1cccc(C(=O)N/N=C/c2ccc(O)c(O)c2O)c1`, the Ki worked out at 3.77 µM. This Ki lies about 2-fold higher than the previous one. Regarding `CCc1c(C(=O)Nc2ccccc2)c(C)[nH]c(=S)c1C#N`, the Ki was determined as 7.87 µM. Still for that read-out and setting: as for `Cc1ccccc1-n1sc2cc(F)ccc2c1=O`, the figure is 9.64 µM; as for `O=C1C(Cl)=C(N2CCCCC2)C(=O)C(Cl)=C1c1cnc(N2CCCCC2)s1`, 0.95 µM. Same read-out and setting: as for `CCNc1ccc2noc3c2c1C(=O)c1ccccc1-3`, the figure is 20.3 µM. Turning to `CCOC(=O)N=Nc1c(O)n(C)c2ccccc12`, the EC50 is > 30 µM (inactive). With `COc1ccccc1-n1c(-c2cc(-c3ccco3)[nH]n2)n[nH]c1=S`, the Ki came to 6.97 µM. On the same count and under the same terms, as for `O=C(OCC1O[C@@H](OC(=O)c2cc(O)c(O)c(O)c2)[C@@H](OC(=O)c2cc(O)c(O)c(O)c2)[C@@H](OC(=O)c2cc(O)c(O)c(O)c2)[C@@H]1OC(=O)c1cc(O)c(O)c(O)c1)c1cc(O)c(O)c(O)c1` (stereo partly drawn), the figure is 1.05 µM. On to `NS(=O)(=O)c1ccc(N/N=C/c2ccc(O)c(O)c2O)c([N+](=O)[O-])c1`, for which the EC50 was 1.69 µM and the Ki was found to be 1.4 µM. Regarding `O=C(O[C@@H]1OC2COC(=O)c3cc(O)c(O)c(O)c3-c3c(cc(O)c(O)c3O)C(=O)O[C@@H]([C@H]1O)[C@@H]2O)c1cc(O)c(O)c(O)c1`, the Ki stood at 1.45 µM. Still for that read-out and setting: for `O=C1OCC2OC(O)C(O)C(O)C2OC(=O)c2cc(O)c(O)c(O)c2-c2c(O)c(O)c3oc(=O)c4c(c(O)c(O)c5oc(=O)c2c3c54)-c2c1cc(O)c(O)c2O` (stereo not drawn) the value was 0.5 µM.
